The Ki is the equilibrium dissociation constant of an inhibitor or competing ligand from its target. Usually IC50 stands for the midpoint of a concentration-inhibition curve. Broadly, the ED50 is the midpoint of the dose-response relation.

The text below walks through data of patent EP1030659B1 (Warner-Lambert Company LLC, priority 1997, dated 1999).

For one data set, the target named is α2-receptors. Nature of the data set: Alpha-2 binding, p-125iodoclonidine, canine brain (frontal cortex) membranes. On the set-up: species or system mongrel dogs. The method, then: • PULMONARY ALPHA-1 AND BETA-2 RECEPTORS. The lungs of mongrel dogs were separated from cartilaginous airways and major blood vessels, weighed, chopped and placed into 10 volumes of ice-cold buffered sucrose (50 mM Tris-HCl, pH 7.4, 1 mM EGTA, 0.32 M sucrose). The tissue was then homogenized in a type PT10/35, size 89/PTA 20S, Polytron tissue homogenizer (Kinematica, Westbury, NY). The homogenate was filtered through two layers of cheesecloth, and the filtrate was dounced three times using a 55 ml Con-Torque Potter homogenizer (Eberbach Corporation, Ann Arbor, Ml). […] The supematant was re-centrifuged at 30,000 x g for 30 minutes at 4°C and the resulting pellet was washed and resuspended in 10 volumes of Tris buffer (50 mM Tris HCL, pH 7.4, 1 mM EGTA) and incubated at 37°C for 30 minutes in a shaking water bath. The suspension was centrifuged at 4°C at 30,000 x g for 30 minutes and the resulting pellet washed in 10 volumes of Tris buffer for a total of three additional centrifugations and washes. […] Protein concentration was determined by the Lowry method and the final suspension was adjusted to 10 mg of protein/ml, aliquoted and stored at -90°C. Particulates were also prepared for β2 receptors using the identical procedure except the final protein concentration was adjusted to 0.1 mg/ml. • BRAIN ALPHA-2 RECEPTORS: Membranes of mongrel dogs were harvested from the canine frontal cortex and prepared as described above with respect to the lungs, except that the final membrane protein concentration was adjusted to 0.5 mg/ml.
Nonspecific binding was determined for each concentration point in separate incubations using 10 µM phentolamine. Each experimental point was determined in triplicate. […] All binding assay incubations were terminated by rapid dilution with 2 ml of ice-cold wash buffer (50 mM Tris-HCl, pH 7.4) and filtration through FP-100 Whatman GF/B fired filters (Biomedical Research & Development Lab, Gaithersburg, MD) using a Brandel receptor-binding harvester. The filters were washed twice more with 4 ml of wash buffer and then added to 6 ml Cytoscint (ICN, Costa Mesa CA) for liquid scintillation counting (Barnes et al., 23 MOL. PHARMACOL. 570-75 (1983)). […] Nonspecific binding was determined in separate incubations in the presence of 10 µM phentolamine. The final concentration of p-iodoclonidine was 44-45 pM in competition studies and between 50 pM and 10 nM in saturation experiments. Bound and free p-^125 iodoclonidine were separated and the bound quantitated as described below for the ICYP assays. […] Nonspecific binding was determined in separate incubations in the presence of 2 µM d,I-propranolol. Each experimental point was determined in triplicate. […] Incubations were terminated as described above for the α1 assays. Filters were placed into polyethylene tubes and the bound ligand was determined by gamma spectrometry(Sano et al., 52 LIFE SCIENCES 1063-70 (1993)).
All data were analyzed with the aid of microcomputer nonlinear curve fitting programs (PRISM 2.0, Graphpad Software, San Diego CA).
The receptors resident in each of the three membrane preparations were evaluated by standard saturation analysis following the addition of increasing concentrations of the appropriate radioligand.
The radioligand added for subsequent α2-displacement assays was adjusted to evaluate only the high affinity receptor. Contributions from p-iodoclonidine binding to imidazoline receptors in the α2- displacement assay was evaluated with epinephrine.

Data set [1] has as its system Male Swiss-Webster mice. The experiment in a line: H1 antihistamine (triprolidine) interaction studies, locomotor activity. The settings on record: pretreatment with 0.01, 0.1, or 1.0 mg/kg triprolidine 20 minutes before the sympathomimetic.
A short description of data set [2]: Mean arterial blood pressure after the 75% dose in rats.
A short description of data set [3]: Nasal airway pressure (decongestant activity) in normal and histamine-challenged rats. It counts as in vivo, Sprague Dawley rats. Conditions: for Mean Decrease in Nasal Airway Pressure: mean ± standard error; for Post Drug nasal airway pressure: 100% dose into the jugular vein; for %Change in nasal airway pressure: 100% dose.
In the next data set the target is α1-receptors. Nature of the data set: Alpha-1 binding, 3H-prazocin, canine lung membranes. On the set-up: species or system mongrel dogs. Conditions: Ki = IC50 / 1 + I/Kd, Kd from saturation analysis; unit inferred.
Data set [4] can be described thus: Rat dosage calculated from the dog dosage that raises MAP by 10%. It counts as in vivo. Conditions: calculated from the dog dosage by proportionately decreasing for the lesser weight of the rat; absolute dosage. The method, then: (§1) Nasal airway pressure was measured using a Validyne pressure transducer (Validyne Engineering, Northridge, CA) with a 2.25 cm H2O range membrane connected to a multipen recorder (Grass Instruments, Quincy, MA). Air was passed through an in-line direct measure flow meter (Gilmont Instruments, Barrington, IL) connected to the nasal opening cannula. Pressure was measured in the line with a constant flow rate (150 ml/min) of air. Drugs were directly injected into the jugular vein using a 30 gauge needle. All injections were of a constant 0.1 ml volume. In the congestion challenged groups congestion was achieved by an intranasal administration of histamine (50 mM, 0.02 ml/nostril). The histamine was expelled after 2 minutes with a short nasal cannula airflow and subsequent enantiomeric drug doses were directly injected into the jugular vein. The dosage chosen for each drug was the amount needed to increase the mean arterial pressure (MAP) of the animal by 10%; this dosage served as the "100%" dose for the initial nasal airway studies. […] The dosage required for rats was calculated by proportionately adjusting the experimentally determined dog dosage to account for the lesser weight of the rats.

Data set [5] is described as follows: Dosage required to raise mean arterial pressure (MAP) by 10% in dogs. It counts as in vivo. The settings on record: experimentally determined. The method, then:
as §1

Data set [6] relates to Male Swiss-Webster mice. Nature of the data set: Locomotor stimulant effects (horizontal locomotor activity). It counts as in vivo. The settings on record: i.p.

As for `CN[C@@H](C)[C@H](O)c1ccccc1` [(-)-ephedrine], the Ki on α2-receptors (Ki = IC50 / 1 + I/Kd, Kd from saturation analysis, unit inferred) is […]; at α1-receptors, 47 µM. This compound also showed a concentration for half-maximal inhibition (IC50) at α2-receptors (inhibition of 50% of specific p-iodoclonidine binding, mean of several test samples) of […]. Moreover, the “interaction with triprolidine pretreatment (central nervous system stimulation, horizontal movement)” value in the data set on Male Swiss-Webster mice [1] is “increased horizontal movement”. The “increase in blood pressure (in words)” value in data set [2] is listed as “slightly greater (though significant) increase in blood pressure than (+)-ephedrine”. Also, the “Mean Decrease in Nasal Airway Pressure” value was […] in data set [3] (5% of the dose that increased canine resting mean arterial pressure 10%, rats); -2.5 ± 1.5 in data set [3] (10% of the dose that increased canine resting mean arterial pressure 10%, rats); -3.6 ± 1.9 in data set [3] (25% of the dose that increased canine resting mean arterial pressure 10%, rats); -1.9 ± 2.0 in data set [3] (50% of the dose that increased canine resting mean arterial pressure 10%, rats). Besides, the “effect on normal airway decongestion (in words)” value in data set [3] (75% dose, rats) is on record as “approximately the same efficacious effect on normal airway decongestion”. Also, the “Post Drug nasal airway pressure” value in data set [3] (histamine-challenged rats (50 mM, 0.02 ml/nostril)) is 6.4 ±0.6 mm water; in data set [3] (non-histamine-challenged rats), 6 ± 0.5 mm H2O. The “%Change in nasal airway pressure” value in data set [3] (histamine-challenged rats, relative to post-histamine level) is -21.8 ±3.5%; in data set [3] (non-histamine-challenged rats, relative to control) it was -14 ± 3.4%. For the same compound, the “Dosage of Enantiomer, Rat” value in data set [4] was 30 µg. Further, in data set [5], the “Dosage of Enantiomer, Dog: dosage required to raise MAP by 10%” value worked out at […]. In addition, the ED50 in the data set on Male Swiss-Webster mice [6] (Mus musculus, ip, dose resulting in ½ the maximal stimulant effect, read-out: Stimulation Potency (ED50)) amounted to 38.2 mg/kg. Further, the “locomotor stimulant effects, time course (in words)” value in the data set on Male Swiss-Webster mice [6] (2-hour session) was “Dose dependent increases in locomotor activity of slower onset and longer duration”. Further, in the data set with Male Swiss-Webster mice [6] (ratio of the maximal stimulant effect of the test compound to the maximal effect of (+)-amphetamine), the “Stimulation Efficacy” value is reported as […].
